PMC8541911 (Molecular cell, 2021)

How the values were obtained:
Type in all cases: cell-based
μ-opioid receptor (μOR) = tested on: μ-opioid receptor (μOR)
[1] = target: mouse μOR receptor (Flag-μOR-2x) (Mus musculus, UniProt P42866, M72T); assay: G protein activation assay; details: Gi1-2-3 and Goa-b activation, HEK293 cells
SNAP-μOR receptor = SNAP-μOR receptor (Homo sapiens, UniProt P35372)
[2] = target: T1, human μOR receptor fused to YFP (Homo sapiens, UniProt P35372)
[3] = target: T1, human μOR receptor fused to YFP; remark: listed apart in the source

T1 sequence (P35372 whole entry, the tested form may be a part): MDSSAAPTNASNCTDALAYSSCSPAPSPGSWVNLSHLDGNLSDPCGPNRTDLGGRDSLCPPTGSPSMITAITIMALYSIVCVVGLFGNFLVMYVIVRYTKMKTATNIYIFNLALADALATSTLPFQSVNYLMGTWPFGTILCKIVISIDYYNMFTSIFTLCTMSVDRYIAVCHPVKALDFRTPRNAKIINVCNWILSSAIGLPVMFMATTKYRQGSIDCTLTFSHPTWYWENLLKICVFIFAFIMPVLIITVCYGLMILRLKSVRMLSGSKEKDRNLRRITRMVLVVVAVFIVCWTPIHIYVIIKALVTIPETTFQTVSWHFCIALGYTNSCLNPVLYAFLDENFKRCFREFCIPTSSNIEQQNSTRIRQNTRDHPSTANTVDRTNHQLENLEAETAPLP
Sequence of mouse μOR receptor (Flag-μOR-2x) (P42866 whole entry M72T): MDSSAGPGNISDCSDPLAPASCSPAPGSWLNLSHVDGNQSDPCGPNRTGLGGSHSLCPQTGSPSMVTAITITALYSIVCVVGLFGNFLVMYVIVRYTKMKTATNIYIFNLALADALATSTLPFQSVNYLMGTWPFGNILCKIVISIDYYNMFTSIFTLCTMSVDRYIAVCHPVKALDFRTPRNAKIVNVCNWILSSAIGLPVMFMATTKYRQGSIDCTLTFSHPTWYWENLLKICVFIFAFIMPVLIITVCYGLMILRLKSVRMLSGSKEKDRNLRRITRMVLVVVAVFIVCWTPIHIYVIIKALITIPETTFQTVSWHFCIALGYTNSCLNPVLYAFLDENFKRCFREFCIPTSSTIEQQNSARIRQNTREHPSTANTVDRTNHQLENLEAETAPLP
Sequence of SNAP-μOR receptor (P35372 whole entry, the tested form may be a part): as the sequence (P35372 whole entry, the tested form may be a part) above

| Molecule | Classification of agonism and bias (μ-opioid receptor (μOR)) | Agonist behaviour in G protein assays [1] | μOR internalization (response) (SNAP-μOR receptor) | Recruitment of β-arrestin-1/2 (response) [2] | Recruitment of GRK2/5 (response) [3] |
| --- | --- | --- | --- | --- | --- |
| [D-Ala^2, N-Me-Phe^4, Gly^5-ol]-Enkephalin acetate salt [DAMGO] | unbiased full agonists |  |  |  |  |
| C[C@@H](Cc1ccsc1)NC(=O)NC[C@H](Cc1ccc(O)cc1)N(C)C [PZM21] | G protein-biased full agonists | full agonists |  |  |  |
| COc1ccsc1CNCC[C@@]1(c2ccccn2)CCOC2(CCCC2)C1 [oliceridine] | G protein-biased full agonists | full agonists | nearly no response | nearly no response | nearly no response |
